The record followed here is patent US9145414B2, “1,2,4-triazine-6-carboxamide derivative” (TAIHO PHARMACEUTICAL CO., LTD., priority 2011, dated 2015).

In one experiment the target is human Syk protein (Homo sapiens (Human), UniProt P43405). As to the kind of experiment: Syk kinase inhibition test. Type of experiment: biochemical. The settings on record: Table 95; read-out: SYK inhibitory activity IC50. How it is done: Finally, phosphorylated peptides and non-phosphorylated peptides were separated therebetween using LabChip™ 3000 system (Caliper Life Sciences, Inc., excitation wavelength: 488 nm, detection wavelength: 530 nm). Their respective amounts were measured, and the rate of phosphorylation reaction was then determined from the ratio between the amounts. The concentration at which the compound can inhibit 50% phosphorylation reaction is defined as an IC50 value (μM).
Also, known 1,2,4-triazine-6-carboxamide derivatives A, B, and C (WO2000/075113 (A: compound No. 121 and B: compound No. 154) and WO2000/076980 (C: compound No. 39)) were synthesized as control compounds. Their IC50 values (μM) were calculated in the same way as above and then compared with that of the compound of the present invention.

Experiment [1] has as its system SU-DHL-6 cells (diffuse large-cell lymphoma cell line). Nature of the experiment: Cell growth inhibition test. Particulars: Homo sapiens, 72 h; SU-DHL-6 cells, 3 days culture, Table 96; read-out: Cell growth inhibition IC50. The experiment is classed as cell-based. How it is done:
The compound of the present invention was serially diluted with dimethyl sulfoxide and then added to an RPMI1640 medium containing 10% FBS. Each resulting solution was added at a concentration of 100 μl/well to the preceding SU-DHL-6 cell culture plate (final concentration of the compound: 10, 3, 1, 0.3, 0.1, 0.03, 0.01, and 0.003 μM). The cells were cultured at 37° C. for 3 days in an incubator containing 5% CO2. The cells thus cultured were left at room temperature for 30 minutes and then centrifuged at 1500 rpm for 3 minutes using a centrifuge (Hitachi Koki Co., Ltd., Himac CF7D2). A 100 μl aliquot of the supernatant was removed from each well to allow 100 μl of the cell culture solution to remain therein. This 100 μl of the remaining cell culture solution was supplemented with an equal amount of CellTiter-Glo Luminescent Cell Viability Assay (Promega KK, Cat#: G7573), and the mixture was then shaken for 1 minute using a plate mixer. The reaction solution was left in the dark for 10 minutes. Then, luminescence intensity derived from live cells of each well was measured using a microplate reader (PerkinElmer Inc., ARVOsx). […] Likewise, the IC50 values (μM) of the control compounds were also calculated and then compared with that of the compound of the present invention. Rate of cell growth inhibition(%)=(C−T)/C×100 T: luminescence intensity (count per second) of a well supplemented with the test compound C: luminescence intensity (count per second) of a well non-supplemented with the test compound

Take `Cn1ccc(-n2ccc3c(Nc4nc(N[C@@H]5CCCC[C@@H]5N)nnc4C(N)=O)cccc32)n1` [Example 25, 3-((1R,2S)-2-aminocyclohexylamino)-5-(1-(1-methyl-1H-pyrazol-3-yl)-1H-indol-4-ylamino)-1,2,4-triazine-6-carboxamide]: the values for the IC50 (at human Syk protein; in experiment [1]) were 0.36 nM and 100 nM, respectively.
For `NC(=O)c1nnc(N[C@@H]2CCCC[C@@H]2N)nc1Nc1cccc2c1ccn2C(F)F` [Example 26, 3-((1R,2S)-2-aminocyclohexylamino)-5-(1-(difluoromethyl)-1H-indol-4-ylamino)-1,2,4-triazine-6-carboxamide], the figures for the half-inhibitory concentration (IC50) (on human Syk protein; in experiment [1]) were 0.22 nM and 41 nM, respectively.
Turning to `NC(=O)c1nnc(N[C@@H]2CCCC[C@@H]2N)nc1Nc1cccc2c1ccn2C1COC1` [Example 34, 3-((1R,2S)-2-aminocyclohexylamino)-5-(1-(oxetan-3-yl)-H-indol-4-ylamino)-1,2,4-triazine-6-carboxamide], the IC50 (commonly the point on the concentration scale where inhibition reaches its midpoint) amounted to 0.42 nM on human Syk protein and 65 nM in experiment [1].
In the same order, the values of `NC(=O)c1nnc(N[C@@H]2CCCC[C@@H]2N)nc1Nc1cccc2c1ccn2CCF` [Example 35, 3-((1R,2S)-2-aminocyclohexylamino)-5-(1-(2-fluoroethyl)-1H-indol-4-ylamino)-1,2,4-triazine-6-carboxamide] are 0.51 nM and 107 nM.
In the same order, the values of `NC(=O)c1nnc(N[C@@H]2CCCC[C@@H]2N)nc1Nc1ccc2nn(C(F)F)cc2c1` [Example 57, 3-((1R,2S)-2-aminocyclohexylamino)-5-(2-(difluoromethyl)-2H-indazol-5-ylamino)-1,2,4-triazine-6-carboxamide] are 0.52 nM and 179 nM.
The like results for `Cc1cc(Nc2nc(N[C@@H]3CCCC[C@@H]3N)nnc2C(N)=O)c2ccn(C)c2c1` [Example 60, 3-(((1R,2S)-2-aminocyclohexyl)amino)-5-((1,6-dimethyl-1H-indol-4-yl)amino)-1,2,4-triazine-6-carboxamide] were, in that order, 0.33 nM and 106 nM.
As to `Cc1cc(Nc2nc(N[C@@H]3CCOC[C@@H]3N)nnc2C(N)=O)cc2cn(C(C)(C)C)nc12` [Example 61, 3-(((3R,4R)-3-aminotetrahydro-2H-pyran-4-yl)amino)-5-((2-(tert-butyl)-7-methyl-2H-indazol-5-yl)amino)-1,2,4-triazine-6-carboxamide], the IC50 on human Syk protein is 0.37 nM; in experiment [1], 164 nM.
The like results for `Cn1cc2cc(Nc3nc(N[C@@H]4CCCC[C@@H]4N)nnc3C(N)=O)cc(-c3ccccc3)c2n1` [Example 65, 3-(((1R,2S)-2-aminocyclohexyl)amino)-5-((2-methyl-7-phenyl-2H-indazol-5-yl)amino)-1,2,4-triazine-6-carboxamide] were, in that order, 0.23 nM and 24 nM.
For `Cn1cc(-n2ccc3c(Nc4nc(N[C@@H]5CCCC[C@@H]5N)nnc4C(N)=O)cccc32)cn1` [Example 67, 3-(((1R,2S)-2-aminocyclohexyl)amino)-5-((1-(1-methyl-1H-pyrazol-4-yl)-1H-indol-4-yl)amino)-1,2,4-triazine-6-carboxamide], the IC50 at human Syk protein was 0.26 nM; in experiment [1], 49 nM.
For the compound `NC(=O)c1nnc(N[C@@H]2CCCC[C@@H]2N)nc1Nc1cccc2c1ccn2[C@H]1CC[C@H](O)CC1` [Example 73, 3-(((1R,2S)-2-aminocyclohexyl)amino)-5-((1-(trans-4-hydroxycyclohexyl)-1H-indol-4-yl)amino)-1,2,4-triazine-6-carboxamide], the values for the IC50 (at human Syk protein; in experiment [1]) were 0.37 nM and 53 nM, respectively.
In the same order, the values of `NC(=O)c1nnc(N[C@@H]2CCCC[C@@H]2N)nc1Nc1cc(-c2ccccn2)cs1` [Example 77, 3-(((1R,2S)-2-aminocyclohexyl)amino)-5-((4-(pyridin-2-yl)thiophen-2-yl)amino)-1,2,4-triazine-6-carboxamide] are 0.42 nM and 82 nM.
The like results for `Cc1cc(Nc2nc(N[C@@H]3CCCC[C@@H]3N)nnc2C(N)=O)c2ccn([C@H]3CC[C@H](O)CC3)c2c1` [Example 78] were, in that order, 0.53 nM and 85 nM.
The like results for `CCn1cc2cc(Nc3nc(N[C@@H]4CCCC[C@@H]4N)nnc3C(N)=O)cc(-n3cccn3)c2n1` [Example 79, 3-(((1R,2S)-2-aminocyclohexyl)amino)-5-((2-ethyl-7-(1H-pyrazol-1-yl)-2H-indazol-5-yl)amino)-1,2,4-triazine-6-carboxamide] were, in that order, 0.37 nM and 93 nM.
`Cc1cc(Nc2nc(N[C@@H]3CCCC[C@@H]3N)nnc2C(N)=O)cc2nn(C)cc12` [Example 91, 3-(((1R,2S)-2-aminocyclohexyl)amino)-5-((2,4-dimethyl-2H-indazol-6-yl)amino)-1,2,4-triazine-6-carboxamide diformate]: the IC50 at human Syk protein was 0.26 nM; in experiment [1], 138 nM.
The like results for `NC(=O)c1nnc(N[C@@H]2CCCC[C@@H]2N)nc1Nc1cccc2c1ccn2CCO` [Example 93, 3-(((1R,2S)-2-aminocyclohexyl)amino)-5-((1-(2-hydroxyethyl)-1H-indol-4-yl)amino)-1,2,4-triazine-6-carboxamide] were, in that order, 0.67 nM and 149 nM.
As to `CCn1ncc2c(C)cc(Nc3nc(N[C@@H]4CCCC[C@@H]4N)nnc3C(N)=O)cc21` [Example 97, 3-(((1R,2S)-2-aminocyclohexyl)amino)-5-((1-ethyl-4-methyl-1H-indazol-6-yl)amino)-1,2,4-triazine-6-carboxamide], the figures for the 50% inhibitory concentration (IC50) (on human Syk protein; in experiment [1]) were 0.39 nM and 191 nM, respectively.
In the same order, the values of `CCn1ncc2ccc(Nc3nc(N[C@@H]4CCCC[C@@H]4N)nnc3C(N)=O)cc21` [Example 154] are 0.43 nM and 138 nM.
For the compound `NC(=O)c1nnc(N[C@@H]2CCCC[C@@H]2N)nc1Nc1cc(-c2ccccc2)cs1` [Example 164], the results for the concentration for half-maximal inhibition (IC50) (on human Syk protein; in experiment [1]) were 0.29 nM and 92 nM, respectively.
Take `NC(=O)c1nnc(N[C@@H]2CCCC[C@@H]2N)nc1Nc1ccc2cnn(C(F)F)c2c1` [Example 165]: the values for the IC50 (on human Syk protein; in experiment [1]) were 0.36 nM and 177 nM, respectively.
The like results for `NC(=O)c1nnc(N[C@@H]2CCOC[C@@H]2N)nc1Nc1ccc2cnn(C(F)F)c2c1` [Example 170] were, in that order, 0.58 nM and 178 nM.
In the same order, the values of `NC(=O)c1nnc(N[C@@H]2CCCC[C@@H]2N)nc1Nc1csc2ccccc12` [Example 212] are 0.29 nM and 128 nM.
Regarding `NC(=O)c1nnc(N[C@@H]2CCCC[C@@H]2N)nc1Nc1ccc2sccc2c1` [Example 220], the IC50 at human Syk protein is 0.26 nM; in experiment [1], 180 nM.
On to `CC[C@H](N)CNc1nnc(C(N)=O)c(Nc2cccc3sccc23)n1` [Example 245], for which the IC50 worked out at 0.35 nM on human Syk protein and 158 nM in experiment [1].
For the compound `COC[C@H](N)[C@@H](C)Nc1nnc(C(N)=O)c(Nc2cc(C)cc3c2ccn3C)n1` [Example 256, 3-(((2R,3R)-3-amino-4-methoxybutan-2-yl)amino)-5-((1,6-dimethyl-1H-indol-4-yl)amino)-1,2,4-triazine-6-carboxamide], the IC50 at human Syk protein amounted to 0.35 nM; in experiment [1], 157 nM.
Take `Cn1cc2cc(Nc3nc(N[C@@H]4CCOC[C@@H]4N)nnc3C(N)=O)cc(-c3ccccc3)c2n1` [Example 257, 3-(((3R,4R)-3-aminotetrahydro-2H-pyran-4-yl)amino)-5-((2-methyl-7-phenyl-2H-indazol-5-yl)amino)-1,2,4-triazine-6-carboxamide]: the results for the IC50 (on human Syk protein; in experiment [1]) were 0.38 nM and 49 nM, respectively.
Consider `COC[C@H](N)[C@@H](C)Nc1nnc(C(N)=O)c(Nc2cc(-c3ccccc3)c3nn(C)cc3c2)n1` [Example 258], for which the figures for the IC50 (at human Syk protein; in experiment [1]) were 0.29 nM and 60 nM, respectively.
Take `Cc1cc(Nc2nc(N[C@@H]3CCCC[C@@H]3N)nnc2C(N)=O)cc2cccnc12` [Example 259, 3-(((1R,2S)-2-aminocyclohexyl)amino)-5-((8-methylquinolin-6-yl)amino)-1,2,4-triazine-6-carboxamide]: the IC50 at human Syk protein turned out to be 0.33 nM; in experiment [1], 75 nM.
The like results for `Cc1cc(Nc2nc(N[C@@H]3CCCC[C@@H]3N)nnc2C(N)=O)cc2nn(C(F)F)cc12` [Example 265, 3-(((1R,2S)-2-aminocyclohexyl)amino)-5-((2-(difluoromethyl)-4-methyl-2H-indazol-6-yl)amino)-1,2,4-triazine-6-carboxamide] were, in that order, 0.5 nM and 125 nM.
For `Cc1cc(Nc2nc(N[C@@H]3CCOC[C@@H]3N)nnc2C(N)=O)c2ccn(C)c2c1` [Example 267], the 50% inhibitory concentration (IC50) was determined as 0.41 nM on human Syk protein and 128 nM in experiment [1].
